Usually inhibition stands for the drop in the measured response relative to a control, in per cent. Low readings indicate a response near the control, high ones a response far below the control.

The structures appear in SMILES notation.

This assay has as its target T1, HCV-NS5b (Hepatitis C virus genotype 1b, UniProt Q9WMX2).
T1 construct: The cloned fragment was missing the C terminus 21 amino acid residues; (His)6 (C); made in house; host or cells: XL-1 cells (E. coli)
Briefly: HCV-NS5b Enzyme Assay. In kind it is biochemical. The following applies: 1 μM test compound; incorporation of [3H]-UTP, 37° C., 2 hours. An excerpt: The coding sequence of NS5b protein was cloned by PCR from pFKI389luc/NS3-3′/ET as described by Lohmann, V., et al. (1999) Science 285, 110-113 using the following primers: • […] (SEQ. ID. NO. 1) • […] (SEQ. ID. NO. 2)
The cloned fragment was missing the C terminus 21 amino acid residues. The cloned fragment is inserted into an IPTG-inducible expression plasmid that provides an epitope tag (His)6 at the carboxy terminus of the protein.
The recombinant enzyme was expressed in XL-1 cells and after induction of expression, the protein was purified using affinity chromatography on a nickel-NTA column. Storage condition is 10 mM Tris-HCl pH 7.5, 50 mM NaCl, 0.1 mM EDTA, 1 mM DTT, 20% glycerol at −20° C.
The polymerase activity was assayed by measuring incorporation of radiolabeled UTP into a RNA product using a biotinylated, heteropolymeric template, which includes a portion of the HCV genome. Typically, the assay mixture […] contains 10 mM Tris-HCl (pH 7.5), 5 mM MgCl2, 0.2 mM EDTA, 10 mM KCl, 1 unit/μL RNAsin. 1 mM DTT, 10 μM each of NTP, including [^3H]-UTP, and 10 ng/μL biotinylated heteropolymeric template. 20× test compound in 2 μl's was then added as a 100% DMSO solution to achieve a final DMSO concentration of 5%. For IC50 determination a 10-point dose response was used. The compounds were serial diluted 2-fold […]. Typically for IC50's, compounds were tested starting at 50 uM or 2 μm depending on the potency. Reactions were started with addition of 10×NS5B in 4 μl's and allowed to incubate at 37° C. for 2 hours. Reactions were quenched with 8 μL of 100 mM EDTA and reaction mixtures (30 μL) were transferred to streptavidin-coated scintillation proximity microtiter plates (FlashPlates) and incubated at 4° C. overnight. Incorporation of radioactivity was determined by scintillation counting (cpm). The % Inhibition at a particular concentration was determined using the following equation, % Inhibition=100−[100*(cpm with inhibitor−bg)/(cpm with no inhibitor−bg)] where bg was the background with no enzyme.
Regarding `Cc1nc(C)c(-c2nc3ccc(-c4cc5ccc(C(=O)O)cc5n4CC(=O)N4CCCCC4)cc3cc2C2CCCCC2)s1` [Compound 216, 1-(2-oxo-2-piperidin-1-yl-ethyl)-2-[2-(2,4-dimethylthiazol-5-yl)-3-cyclohexylquinolin-6-yl]-1H-indole-6-carboxylic acid], testing at 1 µM gave an inhibition of 98.8%. For `O=C(O)c1ccc2c(C3CCCCC3)c(-c3ccc4nc(-c5cccc(C(F)(F)F)c5)ccc4c3)n(CC(=O)N3CCOCC3)c2c1` [Compound 247, 3-Cyclohexyl-1-(2-morpholin-4-yl-2-oxo-ethyl)-2-[2-(3-trifluoromethyl-phenyl)-quinolin-6-yl]-1H-indole-6-carboxylic acid], the inhibition at 1 µM was determined as 98.4%. Still for that read-out and setting: as for `O=C(O)c1ccc2c(C3CCCCC3)c(-c3ccc4nc(-c5cccc(Br)c5)ccc4c3)n(CC(=O)N3CCOCC3)c2c1` [Compound 262, 2-[2-(3-Bromo-phenyl)-quinolin-6-yl]-3-cyclohexyl-1-(2-morpholin-4-yl-2-oxo-ethyl)-1H-indole-6-carboxylic acid], the figure is 97.3%. On the same count and under the same terms, the result for `COc1ccc(-c2ccc(Cl)cc2)c(-c2ccc3cc(-c4c(C5CCCCC5)c5ccc(C(=O)O)cc5n4CC(=O)N4CCOCC4)ccc3n2)c1` [Compound 203, 1-[N-morpholinocarbonylmethyl]-2-[2-(4′-chloro-4-methoxy-biphen-2-yl)-quinolin-6-yl]-3-cyclohexyl-1H-indole-6-carboxylic acid] reads 98.7%; that for `O=C(O)c1ccc2c(C3CCCCC3)c(-c3ccc(-c4cccc([N+](=O)[O-])c4)cc3)n(CC(=O)N3CCOCC3)c2c1` [Compound 310, 3-Cyclohexyl-2-(3′-nitro-biphenyl-4-yl)-1-(2-morpholin-4-yl-2-oxo-ethyl)-1H-indole-6-carboxylic acid], 99.6%. Take `O=C(O)c1ccc2c(C3CCCCC3)c(-c3ccc4nc(-c5ccccn5)ccc4c3)n(CC(=O)N3CCOCC3)c2c1` [Compound 217, 1-[N-morpholinocarbonylmethyl]-2-[2-(pyrid-2-yl)-quinolin-6-yl]-3-cyclohexyl-1H-indole-6-carboxylic acid]: the “% inhibition @ 1 μM” value is 98.0%. `Cc1nc(C)c(-c2ccc3cc(-c4c(C5CCCCC5)c5ccc(C(=O)O)cc5n4CCCN(C)C)ccc3n2)s1` [Compound 286, 3-Cyclohexyl-1-(3-dimethylamino-propyl)-2-[2-(2,4-dimethyl-thiazol-5-yl)-quinolin-6-yl]-1H-indole-6-carboxylic acid] came in with an inhibition at 1 µM of 85.7%. Compound `NC(=O)c1cc(-c2ccc3cc(-c4c(C5CCCCC5)c5ccc(C(=O)O)cc5n4CC(=O)N4CCOCC4)ccc3n2)ccc1O` [Compound 207, 1-[N-morpholinocarbonylmethyl]-2-[2-(3-amido-4-hydroxy-phenyl)-quinolin-6-yl]-3-cyclohexyl-1H-indole-6-carboxylic acid] had an inhibition at 1 µM of 95.7%. Same read-out and setting: the result for `Cc1csc(-c2ccc3cc(-c4c(C5CCCCC5)c5ccc(C(=O)O)cc5n4CC(=O)N4CCOCC4)ccc3n2)c1` [Compound 234, 3-Cyclohexyl-2-[2-(4-methyl-thiophen-2-yl)-quinolin-6-yl]-1-(2-morpholin-4-yl-2-oxo-ethyl)-1H-indole-6-carboxylic acid] reads 97.4%; that for `COc1cc(OC)cc(-c2ccc3cc(-c4c(C5CCCCC5)c5ccc(C(=O)O)cc5n4CC(=O)N4CCOCC4)ccc3n2)c1` [Compound 251, 3-Cyclohexyl-2-[2-(3,5-dimethoxy-phenyl)-quinolin-6-yl]-1-(2-morpholin-4-yl-2-oxo-ethyl)-1H-indole-6-carboxylic acid], 98.5%. The same measure, in the same setting: as for `COc1ccc(-c2ccc3cc(-c4c(C5CCCCC5)c5ccc(C(=O)O)cc5n4CC(=O)N4CCOCC4)ccc3n2)cc1` [Compound 254, 3-Cyclohexyl-2-[2-(4-methoxy-phenyl)-quinolin-6-yl]-1-(2-morpholin-4-yl-2-oxo-ethyl)-1H-indole-6-carboxylic acid], the figure is 96.9%.

Values taken from patent publication US20060211698A1, “Bicyclic heteroaryl derivatives for treating viruses” (Genelabs, Inc., priority 2005, published 2006).
